From article PMC6181586 (Chemical communications (Cambridge, England), 2018)

Biological target: CatB (Homo sapiens, UniProt P07858)
Test: SDS-PAGE of adduct formation with CatB
Assay type: biochemical
Details: co-incubation with conjugates and CatB, SDS-PAGE autoradiography

CCCNC(=O)[C@H]1O[C@@H]1C(=O)N[C@H](C(=O)N1CCC[C@H]1C(=O)O)[C@@H](C)CC [CA-074]
Effect of co-incubation on CatB adducts of the conjugates: eliminated observable CatB adducts
